Where only a bound is given, the exact number is not on record here.

The target in this assay is T1, CDK12 complexed with Cyclin K (Homo sapiens, UniProt Q9NYV4).
T1 construct: GST (N)
T1 sequence (Q9NYV4 whole entry): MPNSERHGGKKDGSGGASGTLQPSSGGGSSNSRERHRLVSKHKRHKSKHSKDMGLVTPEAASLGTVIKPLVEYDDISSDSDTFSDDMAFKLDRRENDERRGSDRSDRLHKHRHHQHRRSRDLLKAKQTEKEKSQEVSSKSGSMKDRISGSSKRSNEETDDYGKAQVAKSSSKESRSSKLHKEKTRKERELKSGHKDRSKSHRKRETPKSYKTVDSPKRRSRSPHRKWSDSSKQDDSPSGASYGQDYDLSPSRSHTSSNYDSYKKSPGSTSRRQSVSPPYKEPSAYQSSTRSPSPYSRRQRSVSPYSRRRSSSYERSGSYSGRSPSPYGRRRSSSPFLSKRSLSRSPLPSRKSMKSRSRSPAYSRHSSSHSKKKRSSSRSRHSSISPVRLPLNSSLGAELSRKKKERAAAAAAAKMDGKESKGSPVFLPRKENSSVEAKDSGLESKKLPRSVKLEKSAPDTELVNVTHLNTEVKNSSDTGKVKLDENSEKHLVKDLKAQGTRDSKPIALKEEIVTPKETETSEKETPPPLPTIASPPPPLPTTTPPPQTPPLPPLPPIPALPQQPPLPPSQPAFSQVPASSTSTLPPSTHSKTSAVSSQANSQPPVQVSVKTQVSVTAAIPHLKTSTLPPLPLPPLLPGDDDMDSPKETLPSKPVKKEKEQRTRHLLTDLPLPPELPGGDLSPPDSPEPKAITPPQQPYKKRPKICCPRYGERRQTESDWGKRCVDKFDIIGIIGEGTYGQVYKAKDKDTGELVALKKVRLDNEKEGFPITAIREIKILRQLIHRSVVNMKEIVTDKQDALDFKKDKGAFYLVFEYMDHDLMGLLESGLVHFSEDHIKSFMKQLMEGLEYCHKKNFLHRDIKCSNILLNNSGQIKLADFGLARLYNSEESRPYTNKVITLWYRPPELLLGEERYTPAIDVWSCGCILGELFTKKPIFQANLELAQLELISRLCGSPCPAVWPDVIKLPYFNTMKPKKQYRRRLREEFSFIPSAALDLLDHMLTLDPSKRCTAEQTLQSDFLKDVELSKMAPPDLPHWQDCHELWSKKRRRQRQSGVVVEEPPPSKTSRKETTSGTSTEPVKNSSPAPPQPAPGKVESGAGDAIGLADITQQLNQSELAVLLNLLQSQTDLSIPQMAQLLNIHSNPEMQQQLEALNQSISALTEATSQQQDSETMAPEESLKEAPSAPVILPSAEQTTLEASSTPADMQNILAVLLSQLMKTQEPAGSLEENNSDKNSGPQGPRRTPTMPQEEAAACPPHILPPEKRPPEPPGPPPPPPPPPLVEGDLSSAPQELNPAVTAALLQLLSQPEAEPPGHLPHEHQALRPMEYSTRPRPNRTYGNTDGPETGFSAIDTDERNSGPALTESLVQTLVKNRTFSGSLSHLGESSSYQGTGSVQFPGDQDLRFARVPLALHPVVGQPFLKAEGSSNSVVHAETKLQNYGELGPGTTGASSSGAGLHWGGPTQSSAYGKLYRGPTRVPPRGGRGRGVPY
T1 sequence (O75909 whole entry partner): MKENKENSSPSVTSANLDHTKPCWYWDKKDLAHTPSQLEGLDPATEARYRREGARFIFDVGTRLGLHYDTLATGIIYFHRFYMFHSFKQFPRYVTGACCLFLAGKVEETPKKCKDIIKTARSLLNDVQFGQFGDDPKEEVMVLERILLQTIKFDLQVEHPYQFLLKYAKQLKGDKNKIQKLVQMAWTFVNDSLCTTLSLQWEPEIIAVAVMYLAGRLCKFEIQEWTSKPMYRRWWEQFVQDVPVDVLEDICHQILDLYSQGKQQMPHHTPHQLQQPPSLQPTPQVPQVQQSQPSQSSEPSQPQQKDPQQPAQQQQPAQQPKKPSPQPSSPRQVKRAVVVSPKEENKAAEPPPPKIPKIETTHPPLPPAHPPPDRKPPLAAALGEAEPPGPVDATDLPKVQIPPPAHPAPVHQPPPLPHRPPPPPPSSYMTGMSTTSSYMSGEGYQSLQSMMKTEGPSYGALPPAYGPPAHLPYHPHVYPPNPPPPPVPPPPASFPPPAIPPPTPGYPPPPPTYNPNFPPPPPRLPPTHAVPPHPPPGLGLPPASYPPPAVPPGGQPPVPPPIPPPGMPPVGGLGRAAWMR
The assay is described as follows: CDK Enzymatic Assays (HTRF, LANCE Ultra kinase assay), Example A1. The format is biochemical. Conditions: enzyme pre-incubated with compounds for 60 minutes prior to addition of ATP (1 mM final) and Ulight-peptide; reaction 60-90 minutes at room temperature. An excerpt: Example A1. CDK Enzymatic Assays
The following activity of the CDK enzymes in complex with their respective cyclins we assayed: CDK1 complexed with Cyclin B1; CDK2 complexed with Cyclin E1; CDK4 complexed with Cyclin D1; CDK6 complexed with Cyclin D1; CDK6 complexed with Cyclin D3; CDK9 complexed with Cyclin T1; CDK7 complexed with Cyclin H/MAT1; CDK2 complexed with Cyclin A2; CDK5 complexed with p35; CDK12 complexed with Cyclin K; CDK13 complexed with Cyclin K. These in vitro enzyme activity are assayed using homogeneous time-resolved energy transfer (HTRF), which measures phosphorylation of a peptide substrate. The LANCER Ultra kinase assay (PerkinElmer) uses a ULight™-labeled EIF4E-binding protein 1 (THR37/46) peptide (DYSTTPGGTLFSTTPGTRI (SEQ ID NO: 1)) substrate and a Europium-labeled anti-phospho-4E-BP1 antibody (CDK2, CDK1, CDK4, CDK6, CDK9, CDK12, CDK13) or ULight™-labeled Myelin Basic Protein peptide (VTPRTPPP (SEQ ID NO: 2)) substrate and a Europium-labeled anti-phospho-MBP antibody (CDK7). Each CDK enzyme activity assays utilized human CDK co-expressed as N-terminal GST-tagged protein with its full length cyclin partner using a baculovirus expression system.
Enzyme was pre-incubated with compounds for 30 minutes (CDK1,2,4,6,9) or 60 minutes (CDK7, CDK12, CDK13) prior to addition of ATP and Ulight-peptide (1 mM and 50 nM final, respectively), in assay buffer containing 50 mM HEPES pH 7.5, 1 mM EGTA, 10 mM MgCl2, 2 mM DTT, 0.05 mg/mL BSA, and 0.01% Tween 20. The reaction was then incubated for 60-90 minutes at room temperature. The reactions were stopped by the addition of EDTA and Europium labeled antibody, for a final concentration of 15 mM and 1.0-1.5 nM, respectively. HTRF signals were read after 15-120 minutes. A ratio of fluorescence transferred to the labeled substrate (665 nm) relative to fluorescence of the Europium donor (620 nm) represents the extent of phosphorylation. Ratios for treated wells were normalized to DMSO only (100% activity) and no enzyme (0% activity) controls. Normalized data was analyzed using a three or four parameter dose response curve to determine IC50 for each compound and are shown in Table A. Control reference inhibitors were included on each plate.
For orientation: TR-FRET usually uses a lanthanide donor and a delayed reading to cut background.
For `CC#CC(=O)Nc1ccc2c(c1)nc([C@H]1CCC[C@@H](Nc3ncc(C#N)c(OC)n3)C1)n2C` [Example 54, N-(2-((1S,3R)-3-((5-Cyano-4-methoxypyrimidin-2-yl)amino)cyclohexyl)-1-methyl-1H-benzo[d]imidazol-5-yl)but-2-ynamide], the IC50 – broadly, the point on the concentration scale where inhibition reaches its midpoint – lay within 50 to 500 nM.
The figure for `COc1nc(N[C@@H]2CCC[C@H](N3Cc4ccc(NC(=O)C(C)Br)cc4C3=O)C2)ncc1C#N` (stereo partly drawn) [Example 55, 2-Bromo-N-(2-((1S,3R)-3-((5-cyano-4-methoxypyrimidin-2-yl)amino)cyclohexyl)-3-oxoisoindolin-5-yl)propanamide] is < 50 nM; for `C=C(F)C(=O)Nc1ccc2c(c1)C(=O)N([C@H]1CCC[C@@H](Nc3ncc(C#N)c(OC)n3)C1)C2` [Example 56, N-(2-((1S,3R)-3-((5-Cyano-4-methoxypyrimidin-2-yl)amino)cyclohexyl)-3-oxoisoindolin-5-yl)-2-fluoroacrylamide] it is 50 to 500 nM; for `COc1nc(N[C@@H]2CCC[C@H](N3Cc4ccc(NC(=O)/C=C/CF)cc4C3=O)C2)ncc1C#N` [Example 57, (E)-N-(2-((1S,3R)-3-((5-Cyano-4-methoxypyrimidin-2-yl)amino)cyclohexyl)-3-oxoisoindolin-5-yl)-4-fluorobut-2-enamide] it is 50 to 500 nM.
The figure for `COc1nc(N[C@@H]2CCC[C@H](N3Cc4ccc(NC(=O)CBr)cc4C3=O)C2)ncc1C#N` [Example 58, 2-Bromo-N-(2-((1S,3R)-3-((5-cyano-4-methoxypyrimidin-2-yl)amino)cyclohexyl)-3-oxoisoindolin-5-yl)acetamide] is < 50 nM.
In the case of `COc1nc(N[C@@H]2CCC[C@H](N3Cc4ccc(NC(=O)CCl)cc4C3=O)C2)ncc1C#N` [Example 59, 2-Chloro-N-(2-((1S,3R)-3-((5-cyano-4-methoxypyrimidin-2-yl)amino)cyclohexyl)-3-oxoisoindolin-5-yl)acetamide] it was < 50 nM; in that of `CC#CC(=O)Nc1ccc2c(c1)C(=O)N([C@H]1CCC[C@@H](Nc3ncc(C#N)c(OC)n3)C1)C2` [Example 60, N-(2-((1S,3R)-3-((5-Cyano-4-methoxypyrimidin-2-yl)amino)cyclohexyl)-3-oxoisoindolin-5-yl)but-2-ynamide], 50 to 500 nM; in that of `C=CC(=O)Nc1ccc2c(c1)C(=O)N([C@H]1CCC[C@@H](Nc3ncc(C(F)(F)F)c(OC)n3)C1)C2` [Example 61, N-(2-((1S,3R)-3-((4-Methoxy-5-(trifluoromethyl)pyrimidin-2-yl)amino)cyclohexyl)-3-oxoisoindolin-5-yl)acrylamide], < 50 nM.
Regarding `C=CC(=O)Nc1ccc2c(c1)C(=O)N([C@H]1CCC[C@@H](Nc3ncc(C(F)(F)F)c(N4CC[C@@H](N(C)C)C4)n3)C1)C2` [Example 62, N-(2-((1S,3R)-3-((4-((R)-3-(Dimethylamino)pyrrolidin-1-yl)-5-(trifluoromethyl)pyrimidin-2-yl)amino)cyclohexyl)-3-oxoisoindolin-5-yl)acrylamide], the half-inhibitory concentration (IC50) was < 50 nM.
Consider `COc1nc(N[C@@H]2CCC[C@H](N3Cc4ccc(NC(=O)/C=C/CN(C)C)cc4C3=O)C2)ncc1C#N` [Example 63, (E)-N-(2-((1S,3R)-3-((5-Cyano-4-methoxypyrimidin-2-yl)amino)cyclohexyl)-3-oxoisoindolin-5-yl)-4-(dimethylamino)but-2-enamide], for which the IC50 was < 50 nM.
In the case of `C/C=C/C(=O)Nc1ccc2c(c1)C(=O)N([C@H]1CCC[C@@H](Nc3ncc(C#N)c(OC)n3)C1)C2` [Example 64, (E)-N-(2-((1S,3R)-3-((5-Cyano-4-methoxypyrimidin-2-yl)amino)cyclohexyl)-3-oxoisoindolin-5-yl)but-2-enamide] it was > 500 nM.
On to `C=CC(=O)N(C)c1ccc2c(c1)C(=O)N([C@H]1CCC[C@@H](Nc3ncc(C#N)c(OC)n3)C1)C2` [Example 65, N-(2-((1S,3R)-3-((5-Cyano-4-methoxypyrimidin-2-yl)amino)cyclohexyl)-3-oxoisoindolin-5-yl)-N-methylacrylamide], for which the IC50 is < 50 nM.
In the case of `C=CC(=O)Nc1ccc2c(c1)C(=O)N([C@H]1CCC[C@@H](Nc3ncc(C#N)c(NCC(C)(C)O)n3)C1)C2` [Example 66, N-(2-((1S,3R)-3-((5-Cyano-4-((2-hydroxy-2-methylpropyl)amino)pyrimidin-2-yl)amino)cyclohexyl)-3-oxoisoindolin-5-yl)acrylamide] it was < 50 nM; in that of `C=CC(=O)Nc1ccc2c(c1)C(=O)N([C@H]1CCC[C@@H](Nc3ncc(C#N)c(NC)n3)C1)C2` [Example 67, N-(2-((1S,3R)-3-((5-Cyano-4-(methylamino)pyrimidin-2-yl)amino)cyclohexyl)-3-oxoisoindolin-5-yl)acrylamide], < 50 nM.
The figure for `C=CC(=O)Nc1ccc2c(c1)C(=O)N([C@H]1CCC[C@@H](Nc3ncc(Br)cn3)C1)C2` [Example 68, N-(2-((1S,3R)-3-((5-Bromopyrimidin-2-yl)amino)cyclohexyl)-3-oxoisoindolin-5-yl)acrylamide] is < 50 nM.
On to `C=CC(=O)Nc1cccc2c1ncn2[C@H]1CCC[C@@H](Nc2ncc(C#N)cn2)C1` [Example 69, N-(1-((1S,3R)-3-((5-Cyanopyrimidin-2-yl)amino)cyclohexyl)-1H-benzo[d]imidazol-4-yl)acrylamide], for which the IC50 was < 50 nM.
The figure for `C=CC(=O)Nc1ccc2c(c1)nc([C@H]1CC[C@@H](Nc3ncc(C#N)cn3)C1)n2C` [Example 70, N-(2-((1S,3R)-3-((5-Cyanopyrimidin-2-yl)amino)cyclopentyl)-1-methyl-1H-benzo[d]imidazol-5-yl)acrylamide] is < 50 nM.
In the case of `C=CC(=O)Nc1ccc2c(c1)nnn2[C@H]1CCC[C@@H](Nc2ncc(C#N)cn2)C1` [Example 71, N-(1-((1S,3R)-3-((5-Cyanopyrimidin-2-yl)amino)cyclohexyl)-1H-benzo[d][1,2,3]triazol-5-yl)acrylamide], the IC50 was < 50 nM.
The figure for `C=CC(=O)Nc1ccc2c(c1)nc([C@H]1CCC[C@@H](Nc3ncc(C(F)(F)F)cn3)C1)n2C` [Example 72, N-(1-Methyl-2-((1S,3R)-3-((5-(trifluoromethyl)pyrimidin-2-yl)amino)cyclohexyl)-1H-benzo[d]imidazol-5-yl)acrylamide] is < 50 nM; for `C=CC(=O)Nc1ccc2c(c1)nc([C@H]1CCC[C@@H](Nc3ncc(C#N)c(OC)n3)C1)n2C` [Example 73, N-(2-((1S,3R)-3-((5-Cyano-4-methoxypyrimidin-2-yl)amino)cyclohexyl)-1-methyl-1H-benzo[d]imidazol-5-yl)acrylamide] it is < 50 nM; for `C=CC(=O)Nc1ccc2c(c1)nc([C@H]1CCC[C@@H](Nc3ncc(C#N)cn3)C1)n2C` [Example 74, N-(2-((1S,3R)-3-((5-Cyanopyrimidin-2-yl)amino)cyclohexyl)-1-methyl-1H-benzo[d]imidazol-5-yl)acrylamide] it is < 50 nM.
In the case of `C=CC(=O)Nc1ccc2c(c1)C(=O)N([C@H]1CCC[C@@H](Nc3ncc(Br)c(C(F)(F)F)n3)C1)C2` [Example 75, N-(2-((1S,3R)-3-((5-Bromo-4-(trifluoromethyl)pyrimidin-2-yl)amino)cyclohexyl)-3-oxoisoindolin-5-yl)acrylamide] it was < 50 nM.

Values taken from patent publication US12643881B2, “Bicyclic amine CDK12 inhibitors” (Incyte Corporation, priority 2021, dated 2026).
